Reference: patent US8524745B2 (Allergan, Inc., priority 2011, dated 2013)

What follows are molecules tested against T1, CCR2 (Homo sapiens, UniProt P41597) (assay: CCR2 calcium activity assay on FLIPR Tetra in HEK-Gqi5 cells stably expressing CCR2).
T1 construct: expressed in transfected cells
Format: cell-based
Procedure: HEK-Gqi5 cells stably expressing CCR2 were cultured in (DMEM high glucose, 10% FBS, 1% PSA, 400 μg/ml geneticin and 50 μg/ml hygromycin. Appropriate positive control chemokines (MCP-1, MIP1A or RANTES) was used as the positive control agonist for screening compound-induced calcium activity assayed on the FLIPR^Tetra. The drug plates were prepared in 384-well microplates using the EP3 and the MuItiPROBE robotic liquid handling systems. Compounds were synthesized and tested for CCR2 activity.

T1 sequence (P41597 whole entry, species assumed): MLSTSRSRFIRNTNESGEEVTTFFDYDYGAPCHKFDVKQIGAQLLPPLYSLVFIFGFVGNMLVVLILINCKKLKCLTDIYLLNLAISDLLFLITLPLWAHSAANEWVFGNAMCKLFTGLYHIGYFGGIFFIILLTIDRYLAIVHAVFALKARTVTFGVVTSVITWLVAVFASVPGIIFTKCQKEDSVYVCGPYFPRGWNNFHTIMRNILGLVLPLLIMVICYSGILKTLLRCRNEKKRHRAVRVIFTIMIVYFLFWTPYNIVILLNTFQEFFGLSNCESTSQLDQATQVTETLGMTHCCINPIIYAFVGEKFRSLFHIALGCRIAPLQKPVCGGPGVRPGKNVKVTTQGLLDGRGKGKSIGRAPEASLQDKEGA

| SMILES | CCR2 % ANTAG [%] | IC50 [µM] |
| --- | --- | --- |
| COc1ccc(C(=O)Nc2ccc(Cl)cc2NS(=O)(=O)c2ccc3c(c2)c(=O)sn3C)cc1 [N-(4-chloro-2-{[(1-methyl-3-oxo-1,3-dihydro-2,1-benzisothiazol-5-yl)sulfonyl]amino}phenyl)-4-methoxybenzamide] | 56 | – |
| Cn1cnc(S(=O)(=O)Nc2ccccc2NS(=O)(=O)c2ccc3c(c2)c(=O)sn3C)c1 [1-methyl-N-(2-{[(1-methyl-1H-imidazol-4-yl)sulfonyl]amino}phenyl)-3-oxo-1,3-dihydro-2,1-benzisothiazole-5-sulfonamide] | 99 | 0.963 |
| CC(C)c1ccc(NS(=O)(=O)c2cccs2)c(NS(=O)(=O)c2ccc3c(c2)c(=O)sn3C)c1 [N-{5-isopropyl-2-[(2-thienylsulfonyl)amino]phenyl}-1-methyl-3-oxo-1,3-dihydro-2,1-benzisothiazole-5-sulfonamide] | 85 | 0.425 |
| Cc1cccc(NS(=O)(=O)c2ccc3c(c2)c(=O)sn3C)c1NS(=O)(=O)c1cccs1 [1-methyl-N-{3-methyl-2-[(2-thienylsulfonyl)amino]phenyl}-3-oxo-1,3-dihydro-2,1-benzisothiazole-5-sulfonamide] | 86 | – |
| Cn1sc(=O)c2cc(S(=O)(=O)Nc3cccc4c3OCCO4)ccc21 [N-(2,3-dihydro-1,4-benzodioxin-5-yl)-1-methyl-3-oxo-1,3-dihydro-2,1-benzisothiazole-5-sulfonamide] | 76 | 1.45 |
| Cn1sc(=O)c2cc(S(=O)(=O)Nc3ccccc3NS(=O)(=O)c3ccccc3F)ccc21 [N-(2-{[(2-fluorophenyl)sulfonyl]amino}phenyl)-1-methyl-3-oxo-1,3-dihydro-2,1-benzisothiazole-5-sulfonamide] | 103 | 0.36 |
| CC(C)c1ccc(S(=O)(=O)Nc2ccc(Cl)cc2NS(=O)(=O)c2ccc3c(c2)c(=O)sn3C)cc1 [N-(5-chloro-2-{[(4-isopropylphenyl)sulfonyl]amino}phenyl)-1-methyl-3-oxo-1,3-dihydro-2,1-benzisothiazole-5-sulfonamide] | 94 | 0.985 |
| Cn1sc(=O)c2cc(S(=O)(=O)Nc3ccccc3NS(=O)(=O)c3cc(Cl)ccc3Cl)ccc21 [N-(2-{[(2,5-dichlorophenyl)sulfonyl]amino}phenyl)-1-methyl-3-oxo-1,3-dihydro-2,1-benzisothiazole-5-sulfonamide] | 99 | 1.81 |
| Cn1sc(=O)c2cc(S(=O)(=O)Nc3cc(Cl)c(Cl)cc3Cl)ccc21 [1-methyl-3-oxo-N-(2,4,5-trichlorophenyl)-1,3-dihydro-2,1-benzisothiazole-5-sulfonamide] | 79 | 1.66 |
| CC(C)c1ccc(NS(=O)(=O)c2ccc3c(c2)c(=O)sn3C)c(NS(=O)(=O)c2cccs2)c1 [N-{4-isopropyl-2-[(2-thienylsulfonyl)amino]phenyl}-1-methyl-3-oxo-1,3-dihydro-2,1-benzisothiazole-5-sulfonamide] | 87 | 0.886 |
| Cn1sc(=O)c2cc(S(=O)(=O)Nc3cc(Cl)cnc3NS(=O)(=O)c3cccs3)ccc21 [N-{5-chloro-2-[(2-thienylsulfonyl)amino]pyridin-3-yl}-1-methyl-3-oxo-1,3-dihydro-2,1-benzisothiazole-5-sulfonamide] | 48 | 1.01 |
| COc1ccc(S(=O)(=O)Nc2ccccc2NS(=O)(=O)c2ccc3c(c2)c(=O)sn3C)cc1 [N-(2-{[(4-methoxyphenyl)sulfonyl]amino}phenyl)-1-methyl-3-oxo-1,3-dihydro-2,1-benzisothiazole-5-sulfonamide] | 67 | 2.45 |
| Cn1ccc(S(=O)(=O)Nc2ccccc2NS(=O)(=O)c2ccc3c(c2)c(=O)sn3C)n1 [1-methyl-N-(2-{[(1-methyl-1H-pyrazol-3-yl)sulfonyl]amino}phenyl)-3-oxo-1,3-dihydro-2,1-benzisothiazole-5-sulfonamide] | 53 | 1.68 |
